Test results from US6706880B2 (Research Triangle Institute, priority 1990, dated 2004).
Where two headings read alike, the source gives them in different places.

Tests used:
dopamine transporter = dopamine transporter (UniProt P23977); assay type: binding
Source text: (§1) Illustrative in vitro assays for binding are described in Boja et al Ann. NY Acad. Sci. 654:282-291 (1992), which is incorporated herein by reference in its entirety. […] Alternatively, the compounds may be analyzed by their ability to inhibit reuptake of a labelled neurotransmitter in a sample, in particular, in synaptosomes.

serotonin transporter = biological target: T1, serotonin transporter (Rattus norvegicus, UniProt P31652); assay: Inhibition of [3H]paroxetine radioligand binding at the serotonin transporter
T1 construct: from tissue
T1 sequence (P31652 whole entry): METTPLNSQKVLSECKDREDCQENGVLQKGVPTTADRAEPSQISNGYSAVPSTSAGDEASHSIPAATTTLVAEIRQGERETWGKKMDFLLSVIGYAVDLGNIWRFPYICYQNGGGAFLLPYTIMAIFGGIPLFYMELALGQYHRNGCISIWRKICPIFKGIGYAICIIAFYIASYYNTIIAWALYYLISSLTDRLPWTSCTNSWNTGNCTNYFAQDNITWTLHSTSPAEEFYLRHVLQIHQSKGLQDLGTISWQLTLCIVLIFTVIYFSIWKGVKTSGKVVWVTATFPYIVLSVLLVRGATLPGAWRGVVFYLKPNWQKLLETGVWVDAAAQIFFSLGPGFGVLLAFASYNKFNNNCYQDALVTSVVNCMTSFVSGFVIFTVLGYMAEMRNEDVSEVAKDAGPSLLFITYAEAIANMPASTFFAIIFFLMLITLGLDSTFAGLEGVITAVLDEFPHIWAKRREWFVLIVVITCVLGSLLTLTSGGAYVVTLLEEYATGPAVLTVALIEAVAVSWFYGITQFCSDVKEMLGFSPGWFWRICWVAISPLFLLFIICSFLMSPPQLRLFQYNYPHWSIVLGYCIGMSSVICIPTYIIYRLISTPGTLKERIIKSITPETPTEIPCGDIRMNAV
Source text: as §1

[1] = biological target: norepinephrine transporter (UniProt Q9WTR4); assay: Inhibition of [3H]nisoxetine radioligand binding at the norepinephrine transporter
Source text: as §1

[2] = read-out: DA IC50 for inhibition of radioligand binding, DA=[3H]WIN 35,428
[3] = 5-HT=[3H] paroxetine, read-out: 5-HT IC50 for inhibition of radioligand binding
[4] = read-out: NEN IC50 for inhibition of radioligand binding, NEN=[3H] nisoxetine
[5] = 5-HT IC50 for inhibition of radioligand binding, 5-HT=[3H] paroxetine
[6] = read-out: IC50 DA [3H]-WIN 35,428, Table IV
[7] = IC50 5-HT [3H]-paroxetine, Table IV
[8] = read-out: IC50 NE [3H]-nisoxetine, Table IV

SMILES | IC50 (dopamine transporter; [2]) | IC50 (serotonin transporter; [3]) | IC50 [1, 4] | IC50 (serotonin transporter; [5]) | IC50 (dopamine transporter; [6]) | IC50 (serotonin transporter; [7]) | IC50 [1, 8]
CC(C)OC(=O)C1C(c2ccc(Cl)cc2)CC2CCC1N2C (stereo not shown) [RTI-4229-114] | 1.4 nM | 1400 nM | 778 nM |  |  |  | 
CN1C2CCC1C(COc1ccc(I)cc1)C(c1ccc(Cl)cc1)C2 (stereo not shown) [RTI-4229-116] | 33 nM |  | 968 nM | 1230 nM |  |  | 
Cc1ccc(C2CC3CCC(C2C(=O)OC(C)C)N3C)cc1 (stereo not shown) [RTI-4229-117] | 6.45 nM | 6090 nM | 1930 nM |  |  |  | 
Cc1noc([C@@H]2C3CCC(C[C@H]2c2ccccc2)N3C)n1 (stereo partly shown) [RTI-4229-119] | 167 nM |  | 6990 nM | 40600 nM |  |  | 
Cc1ccc(C2CC3CCC(C2C(=O)Oc2ccccc2)N3C)cc1 (stereo not shown) [RTI-4229-120] | 3.26 nM | 24500 nM | 5830 nM |  |  |  | 
CC(C)OC(=O)C1C(c2ccc(I)cc2)CC2CCC1N2C (stereo not shown) [RTI-4229-121] | 0.43 nM |  | 285 nM | 55.8 nM |  |  | 
CN1C2CCC1C(C(=O)Oc1ccccc1)C(c1ccc(Cl)cc1)C2 (stereo not shown) [RTI-4229-122] | 1.5 nM |  | 3790 nM | 184 nM |  |  | 
CN1C2CCC1C(COC(=O)c1ccccc1)C(c1ccc(Cl)cc1)C2 (stereo not shown) [RTI-4229-123] | 1.78 nM |  | 393 nM | 3.53 nM | 1.78 ± 0.09 nM | 3.53 ± 0.58 nM | 393 ± 30 nM
Cc1noc([C@@H]2C(c3ccccc3)CC3CCC2N3C)n1 (stereo partly shown) [RTI-4229-124] | 1030 nM |  | 71000 nM | 33100 nM |  |  | 
Cc1noc(C2C(c3ccc(Cl)cc3)CC3CCC2N3C)n1 (stereo not shown) [RTI-4229-125] |  |  | 363 nM | 2580 nM |  |  | 
Cc1noc(C2C(c3ccccc3)CC3CCC2N3C)n1 (stereo not shown) [RTI-4229-126] | 100 nM |  | 7880 nM | 3820 nM |  |  | 
CCC(CC)OC(=O)C1C(c2ccc(C)cc2)CC2CCC1N2C (stereo not shown) [RTI-4229-127] | 19 nM | 4500 nM | 3440 nM |  |  |  | 
CN1C2CCC1C(c1nc(-c3ccccc3)no1)C(c1ccc(Cl)cc1)C2 (stereo not shown) [RTI-4229-130] | 1.62 nM | 195 nM | 245 nM |  |  |  | 
Cc1ccc(C2CC3CCC(C2CN(C)C)N3C)cc1 (stereo not shown) [RTI-4229-132] | 3.48 nM |  | 137 nM | 208 nM | 3.48 ± 0.11 nM | 208 ± 18 nM | 137 ± 11 nM
CC1C(c2ccc(Cl)cc2)CC2CCC1N2C (stereo not shown) [RTI-4229-139] | 1.67 nM |  | 56.9 nM | 85 nM | 1.87 ± 0.13 nM | 85 ± 9.3 nM | 57 ± 2.6 nM
COC(=O)C1C2CCC(C[C@H]1c1ccccc1)N2C (stereo partly shown) [RTI-4229-140] | 101 nM |  | 2080 nM |  |  |  | 
COc1ccc(-c2noc(C3C(c4ccc(Cl)cc4)CC4CCC3N4C)n2)cc1 (stereo not shown) [RTI-4229-141] | 1.81 nM |  | 835 nM | 337 nM |  |  | 
COC(=O)C1C2CCC(CC1c1ccc(F)cc1)N2 (stereo not shown) [RTI-4229-142] | 4.39 nM | 68.6 nM | 18.8 nM |  |  |  | 
CN1C2CCC1C(c1nc(-c3ccc(Cl)cc3)no1)C(c1ccc(Cl)cc1)C2 (stereo not shown) [RTI-4229-143] | 4.1 nM |  | 4070 nM | 404 nM |  |  | 
CN1C2CCC1C(c1nc(-c3ccc(Br)cc3)no1)C(c1ccc(Cl)cc1)C2 (stereo not shown) [RTI-4229-144] | 3.44 nM |  | 1820 nM | 106 nM |  |  | 
COC(=O)OCC1C(c2ccc(Cl)cc2)CC2CCC1N2C (stereo not shown) [RTI-4229-145] | 9.6 nM |  | 1480 nM | 2930 nM | 9.6 ± 0.42 nM | 2930 ± 181 nM | 1480 ± 96 nM
CN1C2CCC1C(C(=O)NCO)C(c1ccc(Cl)cc1)C2 (stereo not shown) [RTI-4229-146] | 2.05 nM | 98 nM | 144 nM |  |  |  | 
CN1C2CCC1C(C(=O)N1CCCC1)C(c1ccc(Cl)cc1)C2 (stereo not shown) [RTI-4229-147] | 1.38 nM |  | 3950 nM | 12400 nM |  |  | 
Cc1ccc(C2CC3CCC([C@H]2C(=O)OC2CCC2)N3C)cc1 (stereo partly shown) [RTI-4229-150] | 3.74 nM |  | 4740 nM | 2020 nM |  |  | 
Cc1ccc(C2CC3CCC([C@H]2c2nc(-c4ccccc4)no2)N3C)cc1 (stereo partly shown) [RTI-4229-151] | 2.33 nM |  | 60 nM | 1070 nM |  |  | 
Cc1ccc(C2CC3CCC([C@@H]2c2nc(-c4ccccc4)no2)N3C)cc1 (stereo partly shown) [RTI-4229-152] | 494 nM |  | 22700 nM |  |  |  | 
CC(C)OC(=O)C1C2CCC(CC1c1ccc(I)cc1)N2 (stereo not shown) [RTI-4229-153] | 1.06 nM |  | 132 nM | 3.59 nM |  |  | 
COC(=O)C1C(c2ccc(F)cc2)CC2CCC1N2C (stereo not shown) [RTI-4229-286] |  |  | 1230 nM | 5060 nM |  |  | 
COC(=O)C1C2CCC(CC1c1ccc(C(C)C)cc1)N2 (stereo not shown) [RTI-4229-330] | 310 nM | 15.1 nM |  |  |  |  | 
